{"source": "patent US9932339B2", "about": "“Helquats with heteroaromatic substituents, preparation thereof, and use thereof as G-quadruplex stabilizers” (USTAV ORGANICKE CHEMIE A BIOCHEMIE AV CR, V.V.I., priority 2014, dated 2018)", "key": {"[1]": {"system": "G-quadruplex oligonucleotide F21T (human telomere)", "experiment": "FRET melting of G-quadruplex oligonucleotide F21T with ligands", "type": "binding", "conditions": "for ΔTm (° C.) F21T/ds26: helquat 1 μmol·l^−1, oligonucleotide 0.2 μmol·l^−1, 50-fold excess of double-stranded competitor ds26; for ΔTm (° C.) F21T: helquat 1 μmol·l^−1, oligonucleotide 0.2 μmol·l^−1, without competitor", "text": "(§1) To determine the degree of in vitro interactions of helquats with G-quadruplex(es), the oligonucleotides containing the guanine-rich sequences of human telomere (F21T) and NHE III1 promoter region of c-myc oncogene (Fmyc27T) were used. Both oligonucleotides capable of forming an intramolecular G-quadruplex were end-labeled with suitable fluorophores so as to form donor-acceptor FRET pair (5′-FAM and 3′-TAMRA). If the oligonucleotide is folded into the structure of the G-quadruplex, donor is in close proximity of acceptor and radiationless energy transfer to the acceptor occurs. With increasing temperature of the reaction mixture G-quadruplex structure gradually denatures and thus the donor and acceptor (FAM-TAMRA) drift apart. This leads to an increase in fluorescence of donor (FAM) and a decrease in fluorescence of acceptor (TAMRA).\n(§2) The result of measurement is the curve of dependence of the intensity of fluorescence of the donor on the temperature. If the G-quadruplex is stabilized by ligand, melting temperature will increase. Melting temperature of G-quadruplex corresponds to the temperature when 50% of the original amount of the folded G-quadruplex is denatured. The measurement outcome is the difference in the melting temperatures (ΔTm) of the G-quadruplex alone and the G-quadruplex stabilized by ligand. In case of Fmyc27T experiments were performed in cacodylate buffer (10 mmol·l^−1, pH=7.2) with KCl (5 mmol·l^−1) and LiCl (95 mmol·l^−1) oligonucleotide and in case of F21T oligonucleotide in cacodylate buffer (10 mmol·l^−1, pH=7.2) with KCl (25 mmol·l^−1) and LiCl (75 mmol·l^−1).\n(§3) Both oligonucleotides were denatured for 5 minutes at 95° C. and subsequently allowed to cool to room temperature (3 hours) in the switched-off thermoblock. The final oligonucleotide concentration in the reaction mixture was 0.2 μmol·l^−1. Test helquats were present at concentrations of 1 μmol·l^−1. The total reaction volume was 30 μl. The melting temperature of the oligonucleotides alone (without the presence of helquats) under these conditions was 58.1±0.2° C. for F21T and 64.7±0.4° C. for Fmyc27T. For determining the selectivity of binding of helquats to G-quadruplex in comparison with the double-stranded DNA, 50-fold excess of double-stranded DNA ([…] unlabeled competitor ds26 forming a hairpin) is added to the reaction mixture. After the addition to the reaction mixture ds26 competes with labeled oligonucleotide (Fmyc27T or F21T) for ligand binding. […] Melting temperature of oligonucleotides alone in the presence of the competitor is 59.4±0.5° C. for F21T and 66.3° C.±0.6° C. for Fmyc27T.\n(§4) Fluorescence of FAM donor was measured using real-time PCR apparatus Opticon 2 (excitation 470-505 nm and emission 523-543 nm) in temperature increments of 0.5° C. in the range 25 to 95° C. Evaluation of the sigmoid curves of fluorescence intensity dependent on the temperature were performed in GraphPad Prism 5 (GraphPad Software, Inc., USA). Using nonlinear five parametric regression the inflection point on the curve was calculated that corresponds to the melting temperature (Tm) of the G-quadruplex under the given conditions. The values were obtained from at least three independent measurements."}, "[2]": {"system": "c-Myc27 oligonucleotide G-quadruplex", "experiment": "ECD melting curve of c-Myc27 oligonucleotide G-quadruplex with ligands", "type": "binding", "conditions": "ECD at 263 nm; molar ratio oligonucleotide:ligand 1:1 (5 μmol l^−1 each); Li+-cacodylate buffer", "procedure": "ECD spectra were measured on J-815 spectrometer (Jasco, Japan). Measurement settings (Tab. 3), spectra saving and background subtraction was performed in a Spectra Manager software (Jasco, Japan).\nFor measurement of the temperature dependencies the cuvettes in the cuvette compartment were placed in the Peltier module, the temperature was controlled by the Spectra Manager software. Melting curves were measured at a wavelength which corresponds to the maximum difference in signal intensity of ECD spectra of oligonucleotide at 25 and 95° C., as shown in FIG. 1. Before and after measuring the melting curves, ECD spectra in extreme temperatures were measured, in order to verify the stability of the studied system.\nProcessing of the spectra was performed using Spectra Manager (Jasco, Japan). The resulting spectra were obtained from the measured sample spectrum after subtraction of background spectrum, which was spectrum of the solvent. Measuring of sample spectrum and background was conducted under identical conditions. ECD spectra are reported as ellipticity, labeled in the CD figures [mdeg], whose numerical value is associated with dimensionless circular dichroism ΔA (CDv=32980 ΔAv). This CD notations preserves conventions of the international journals in which articles from the field are published.\nStock solution of […] was prepared from c-Myc27 oligonucleotide by dissolution in H2O. The cuvette of 1 mm thickness was filled with 7 μl of oligonucleotide solution and 133 μl of Li^+-cacodylate buffer. Oligonucleotide solution in the cuvette was overlayed with mineral oil to measure temperature dependencies without concentration changes due to evaporation of the solvent at higher temperatures.\nFrom stock solutions of the racemic ligands in DMSO at a concentration of […] solutions were prepared at a concentration of 140 μmol l^−1 by dissolving in H2O. Ligands were added to the solution of oligonucleotide under buffer/mineral oil interface using Hamilton microsyringe (5 μl of solution at a concentration of […]). The resulting molar ratio of oligonucleotide:ligand was 1:1.\nThe cuvette filled with c-Myc27 oligonucleotide solution in Li^+-cacodylate buffer (cc-Myc27=5 μmol l^−1) was first heated for 5 minutes at 95° C., at this temperature ECD spectrum was measured. Then the sample was cooled to 25° C., allowed to stabilize for 10 min and then ECD spectrum was measured again. Then, the melting curve of ECD oligonucleotide at 263 nm was measured in the temperature range 25-95° C. and for verification of the stability of the sample spectra the spectra were measured again at 95 and 25° C. Under the oil layer ligand solution (cligand=5 μmol l^−1) was added to a solution of oligonucleotide, the sample was thoroughly mixed and ECD spectrum measured at 25° C., the melting curve was obtained and again control spectra were measured at 95 and 25° C.\nDecomposition of the G-quadruplex structure in the presence of ligands under influence of temperature was monitored at the wavelength corresponding to the maximum difference in signal intensities of ECD oligonucleotide/ligand at 25 and 95° C., i.e. at 263 nm. Thermal stability of G-quadruplex was monitored in the range of 25 to 95° C. and in a molar ratio of oligonucleotide:ligand=1:1. Example of influence of the studied ligand on the stability of G-quadruplex formed from c-Myc27 oligonucleotide is shown in FIG. 2.\nThe degree of G-quadruplex stabilization was expressed as change of melting temperature caused by the presence of G-quadruplex ligands (ΔTm): ΔTm=Tm,oligonucleotide+ligand−Tm,oligonucleotide (1), • where Tm,oligonucleotide+ligand is melting temperature of molecular system comprising the oligonucleotide and the ligand and Tm,oligonucleotide, the melting temperature of the oligonucleotide itself. Tab. 4 summarizes the changes in melting temperatures of c-Myc27 oligonucleotide G-quadruplex in the presence of studied ligands."}, "[3]": {"system": "G-quadruplex oligonucleotide Fmyc27T (NHE III1 promoter region of c-myc oncogene)", "experiment": "FRET melting of G-quadruplex oligonucleotide Fmyc27T with ligands", "type": "binding", "conditions": "for ΔTm (° C.) Fmyc27T/ds26 (° C.): helquat 1 μmol·l^−1, oligonucleotide 0.2 μmol·l^−1, 50-fold excess of double-stranded competitor ds26; for ΔTm (° C.) Fmyc27T: helquat 1 μmol·l^−1, oligonucleotide 0.2 μmol·l^−1, without competitor", "text": "as §1, §2, §3, §4"}, "G-quadruplex": {"system": "G-quadruplex", "conditions": "background statement; cited from earlier work"}, "[4]": {"conditions": "Phase II clinical trials; cited from earlier work"}}, "data": [{"smiles": "Brc1ccc2[nH]cc(/C=C/c3cc[n+]4c(c3)-c3c(ccc5c3-c3cccc[n+]3CC5)CC4)c2c1.O=S(=O)([O-])C(F)(F)F.O=S(=O)([O-])C(F)(F)F", "note": "[LSA-C9-30, (E)-2-(2-(5-bromo-1H-indol-3-yl)vinyl)-6,7,10,11-tetrahydrodipyrido[2,1-a:1′,2′-k][2,9]phenanthroline-5,12-diium trifluoromethanesulfonate]", "values": [{"measurement": "ΔTm (° C.) F21T/ds26", "setting": "[1]", "result": 5.5, "unit": "°C"}, {"measurement": "ΔTm (° C.) F21T", "setting": "[1]", "result": 8.6, "unit": "°C"}, {"measurement": "ΔTm (° C.)", "setting": "[2]", "result": 6.4, "unit": "°C"}, {"measurement": "ΔTm (° C.) Fmyc27T/ds26 (° C.)", "setting": "[3]", "result": 8.2, "unit": "°C"}, {"measurement": "ΔTm (° C.) Fmyc27T", "setting": "[3]", "result": 10.5, "unit": "°C"}]}, {"smiles": "Cc1c(C)c2c(c3c1CC[n+]1ccc(/C=C/c4c[nH]c5ncccc45)cc1-3)-c1cc(/C=C/c3c[nH]c4ncccc34)cc[n+]1CC2", "note": "[PDB-C8-14, 2,15-bis((E)-2-(1H-pyrrolo[2,3-b]pyridin-3-yl)vinyl)-8,9-dimethyl-6,7,10,11-tetrahydrodipyrido[2,1-a:1′,2′-k][2,9]phenanthroline-5,12-diium trifluoromethanesulfonate]", "values": [{"measurement": "ΔTm (° C.) F21T/ds26", "setting": "[1]", "result": 5.0, "unit": "°C"}, {"measurement": "ΔTm (° C.) F21T", "setting": "[1]", "result": 8.4, "unit": "°C"}, {"measurement": "ΔTm (° C.)", "setting": "[2]", "result": 5.0, "unit": "°C"}, {"measurement": "ΔTm (° C.) Fmyc27T/ds26 (° C.)", "setting": "[3]", "result": 9.3, "unit": "°C"}, {"measurement": "ΔTm (° C.) Fmyc27T", "setting": "[3]", "result": 11.5, "unit": "°C"}]}, {"smiles": "Cc1[nH]c2ccccc2c1/C=C/c1cc[n+]2c(c1)-c1c(c(C)c(C)c3c1-c1cc(/C=C/c4c(C)[nH]c5ccccc45)cc[n+]1CC3)CC2", "note": "[PDB-C10-11, 8,9-dimethyl-2,15-bis((E)-2-(2-methyl-1H-indol-3-yl)vinyl)-6,7,10,11-tetrahydrodipyrido[2,1-a:1′,2′-k][2,9]phenanthroline-5,12-diium trifluoromethanesulfonate]", "values": [{"measurement": "ΔTm (° C.) F21T/ds26", "setting": "[1]", "result": 10.7, "unit": "°C"}, {"measurement": "ΔTm (° C.) F21T", "setting": "[1]", "result": 13.0, "unit": "°C"}, {"measurement": "ΔTm (° C.)", "setting": "[2]", "result": 9.8, "unit": "°C"}, {"measurement": "ΔTm (° C.) Fmyc27T/ds26 (° C.)", "setting": "[3]", "result": 13.1, "unit": "°C"}, {"measurement": "ΔTm (° C.) Fmyc27T", "setting": "[3]", "result": 14.2, "unit": "°C"}]}, {"smiles": "C[n+]1ccc(-c2c3nc(c(-c4cc[n+](C)cc4)c4ccc([nH]4)c(-c4cc[n+](C)cc4)c4ccc([nH]4)c(-c4cc[n+](C)cc4)c4nc2C=C4)C=C3)cc1", "note": "[TMPyP4]", "values": [{"measurement": "selectivity towards G-quadruplex in presence of DNA duplex", "setting": "G-quadruplex", "result": "low selectivity"}]}, {"smiles": "C(=C\\c1c(-c2ccccc2)[nH]c2ccccc12)/c1cc[n+]2c(c1)-c1c(ccc3c1-c1cc(/C=C/c4c(-c5ccccc5)[nH]c5ccccc45)cc[n+]1CC3)CC2.O=S(=O)([O-])C(F)(F)F.O=S(=O)([O-])C(F)(F)F", "note": "[PDA-C15-8, 2,15-bis((E)-2-(2-phenyl-1H-indol-3-yl)vinyl)-6,7,10,11-tetrahydrodipyrido[2,1-a:1′,2′-k][2,9]phenanthroline-5,12-diium trifluoromethanesulfonate]", "values": [{"measurement": "ΔTm (° C.) F21T/ds26", "setting": "[1]", "result": 17.3, "unit": "°C"}, {"measurement": "ΔTm (° C.) F21T", "setting": "[1]", "result": 17.2, "unit": "°C"}, {"measurement": "ΔTm (° C.)", "setting": "[2]", "result": 10.1, "unit": "°C"}, {"measurement": "ΔTm (° C.) Fmyc27T/ds26 (° C.)", "setting": "[3]", "result": 19.9, "unit": "°C"}, {"measurement": "ΔTm (° C.) Fmyc27T", "setting": "[3]", "result": 18.8, "unit": "°C"}]}, {"smiles": "Cc1[nH]c2ccccc2c1/C=C/c1cc[n+]2c(c1)-c1c(ccc3c1-c1cc(/C=C/c4c(C)[nH]c5ccccc45)cc[n+]1CC3)CC2.O=S(=O)([O-])C(F)(F)F.O=S(=O)([O-])C(F)(F)F", "note": "[PDA-C10-11, 2,15-bis((E)-2-(2-methyl-1H-indol-3-yl)vinyl)-6,7,10,11-tetrahydrodipyrido[2,1-a:1′,2′-k][2,9]phenanthroline-5,12-diium trifluoromethanesulfonate]", "values": [{"measurement": "ΔTm (° C.) F21T/ds26", "setting": "[1]", "result": 12.3, "unit": "°C"}, {"measurement": "ΔTm (° C.) F21T", "setting": "[1]", "result": 12.9, "unit": "°C"}, {"measurement": "ΔTm (° C.)", "setting": "[2]", "result": 8.2, "unit": "°C"}, {"measurement": "ΔTm (° C.) Fmyc27T/ds26 (° C.)", "setting": "[3]", "result": 13.9, "unit": "°C"}, {"measurement": "ΔTm (° C.) Fmyc27T", "setting": "[3]", "result": 14.9, "unit": "°C"}]}, {"smiles": "CN1CCC[C@H]1CCNC(=O)c1cn2c3c(c(N4CCC(c5cnccn5)C4)c(F)cc3c1=O)Oc1cc3ccccc3cc1-2", "note": "(stereo partly drawn) [quarfloxin]", "values": [{"measurement": "bioavailability", "setting": "[4]", "result": "poor bioavailability"}]}]}
